{
  "source": "patent US6685962B2",
  "about": "“Gastroretentive controlled release pharmaceutical dosage forms” (priority 1999, dated 2004)",
  "experiment": "Riboflavin plasma pharmacokinetics and bioavailability after IV bolus, oral solution or GRDF",
  "assay_type": "in vivo, Beagle dogs",
  "settings": "for log-terminal slope of plasma riboflavin concentration: 100 mg riboflavin-5-phosphate, dogs n=6",
  "description": "Each dog received the drug by each of these modes, with at least one-week washout period between every phase of the study.\nFollowing each administration blood samples (4 ml) were collected into 5 ml heparinized test tubes wrapped in aluminum foil (to protect from light), for modes (1) and (2) at times 0, 0.25, 0.5, 1, 1.5, 2, 2.5, 3, 3.5, 4, 6, 8, 11, 24 hours, and for mode (3) at times 0, 0.5, 1, 1.5, 2, […], 3, 4, 6, 9, 12, 15, 18, 21, 24, 27, 30, 33, 36 and 48 hours. Plasma was separated following centrifugation (4000 rpm for 10 minutes), and stored at −20° C. pending analysis.\nRiboflavin plasma concentrations were determined by an HPLC method as follows: 100 μl trichloroacetic acid (20%) was mixed with 300 μl of a plasma sample. Following centrifugation of the mixture (13,000 rpm for 10 minutes) the supernatant was separated and incubated for 10 min at 85° C. After additional centrifugation (13,000 rpm for 10 minutes) 60 μl of the solution were injected to C18 HPLC column, with mobile phase that consisted of 15% acetonitrile in solution A (10 mmol potassium dihydrogen phosphate/L and 5 mmol hexanesulfonic acid/L, brought to a pH of 3 with orthophosphoric acid) at a flow rate of 1 ml/min. A spectrofluorometric detector set at 445 nm for excitation wavelength and 530 nm for emission wavelength detected the drug. Drug concentrations were determined with appropriate standard curves.",
  "data": [
    {"smiles": "Cc1cc2nc3c(=O)[nH]c(=O)nc-3n(C[C@H](O)[C@H](O)[C@H](O)CO)c2cc1C", "note": "[riboflavin]", "values": [
      {"measurement": "bioavailability", "setting": "Beagle, dog, plasma, 100 mg, oral administration (oral solution), dogs, read-out: absolute bioavailability of riboflavin", "result": "5.8 ± 2.2", "unit": "%"},
      {"measurement": "rate of riboflavin elimination", "setting": "concluded from iv and PO administration, dogs", "result": 0.4, "unit": "h⁻¹"},
      {"measurement": "log-terminal slope of plasma riboflavin concentration", "setting": "intravenous bolus", "result": "0.44±0.13", "unit": "hr^−1"},
      {"measurement": "log-terminal slope of plasma riboflavin concentration", "setting": "oral solution", "result": "0.35±0.14", "unit": "hr^−1"}
    ]}
  ]
}
